In patent publication US11530244B2, “Cyclic polypeptides for PCSK9 inhibition” (priority 2018, dated 2022) one finds IC50 data, which are given here for 9 molecules.

Structures are written as SMILES. Starred links: 1 amine or outer side, 2 acyl side, 3 side chain; linkers in the order of their positions; H or OH if unused. Positions of bridges follow the written chain, without caps; N, C: chain ends. Non-standard residues stand in square brackets, D forms with d. Residues, ends and D or L forms follow the SMILES beside them. Groups on a side chain read outwards from the residue. *: point of attachment. Pro(trans-4-Ph) = O=C(O)[C@@H]1C[C@@H](c2ccccc2)CN1; Pro(4R-Bn) = O=C(O)[C@@H]1C[C@@H](Cc2ccccc2)CN1; Trp(5-F) = N[C@@H](Cc1c[nH]c2ccc(F)cc12)C(=O)O; X3 = O=C(CCSCc1cc(F)cc(CSCCN[*:1])c1)[*:2]; mXylylene(5-F) = Fc1cc(C[*:1])cc(C[*:2])c1; Phe(4-CN) = N#Cc1ccc(C[C@H](N)C(=O)O)cc1; X4 = O=C(CCSCc1cccc(CSCCN[*:1])c1)[*:2]; Phe(4-Me) = Cc1ccc(C[C@H](N)C(=O)O)cc1; γGlu = O=C(O)[C@H](CCC(=O)[*:2])N[*:1]; mXylylene = c1cc(C[*:1])cc(C[*:2])c1; Palmitoyl = CCCCCCCCCCCCCCCC(=O)*; αMeP = C[C@@]1(C(=O)O)CCCN1; Dab = NCC[C@H](N)C(=O)O; Aib = CC(C)(N)C(=O)O; Mpa = O=C(O)CCS

Sequence of PCSK9 (Q8NBP7 153-692): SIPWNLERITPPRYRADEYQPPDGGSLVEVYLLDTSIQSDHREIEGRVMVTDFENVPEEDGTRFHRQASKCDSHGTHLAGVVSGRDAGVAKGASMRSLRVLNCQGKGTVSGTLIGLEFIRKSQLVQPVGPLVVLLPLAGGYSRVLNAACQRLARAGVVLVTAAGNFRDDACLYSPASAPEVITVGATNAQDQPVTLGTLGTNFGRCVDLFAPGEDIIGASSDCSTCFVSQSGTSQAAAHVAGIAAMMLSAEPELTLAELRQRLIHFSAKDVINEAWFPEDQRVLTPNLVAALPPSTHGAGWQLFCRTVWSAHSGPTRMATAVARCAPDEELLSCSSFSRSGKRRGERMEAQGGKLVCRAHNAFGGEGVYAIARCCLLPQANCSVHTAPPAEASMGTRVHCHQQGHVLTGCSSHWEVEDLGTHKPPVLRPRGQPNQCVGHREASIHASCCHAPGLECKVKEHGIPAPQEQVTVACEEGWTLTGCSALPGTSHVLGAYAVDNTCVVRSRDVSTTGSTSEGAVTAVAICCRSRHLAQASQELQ

In the first assay the target is human PCSK9 / human LDLR EGFa domain interaction (Homo sapiens (Human), UniProt Q8NBP7). As to the kind of experiment: TR-FRET assay of inhibition of the PCSK9-LDLR protein-protein interaction. In kind it is binding. Conditions: TR-FRET, 20 nM human PCSK9, 20 nM human LDLR EGFa domain, 2 hours room temperature; read-out: IC50. The procedure, abridged: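 Half-maximal inhibition was derived by 4-parameter fitting of dose-response TR-FRET data. Each well held 20 nM His-LDLR EGFa, 20 nM avitag-biotinylated PCSK9, Eu-anti-6×His and Ulight-streptavidin (5 nM each) in 50 mM HEPES, 150 mM NaCl, 5 mM CaCl2, 0.01% BSA, 0.01% Surfactant P20, incubated 2 h at room temperature.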
Sequence of human PCSK9 / human LDLR EGFa domain interaction (Q8NBP7 153-692): as above
Sequence of human PCSK9 / human LDLR EGFa domain interaction (Q8NBP7 31-152 partner): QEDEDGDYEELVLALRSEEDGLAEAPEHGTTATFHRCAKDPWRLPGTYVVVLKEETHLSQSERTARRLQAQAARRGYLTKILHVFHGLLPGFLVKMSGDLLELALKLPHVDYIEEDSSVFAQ
For orientation: TR-FRET usually uses a lanthanide donor and a delayed reading to cut background.
What is called IC50 is the concentration at which inhibition is half-maximal. On to `C[C@H]1NC(=O)[C@H](CCCCN)NC(=O)CCSCc2cccc(c2)CSC[C@@H](C(N)=O)NC(=O)[C@]2(C)CCCN2C(=O)[C@H](Cc2ccc(O)cc2)NC(=O)C(C)(C)NC(=O)[C@@H]2CCCN2C(=O)[C@H](Cc2c[nH]c3ccc(F)cc23)NC(=O)[C@H](Cc2c[nH]c3ccc(F)cc23)NC1=O` [Compound 005] ([Mpa]K[dA][Trp(5-F)][Trp(5-F)]P[Aib]Y[αMeP]C-NH2; linker 1-10 via mXylylene), for which the IC50 fell in the range of 0.1 to 100 nM.

Turning to `COc1ccc(C[C@@H]2NC(=O)[C@H]([C@@H](C)O)NC(=O)[C@]3(C)CCCN3C(=O)[C@H](Cc3c[nH]c4ccc(F)cc34)NC(=O)[C@H](Cc3c[nH]c4ccc(F)cc34)NC(=O)[C@@H](C)NC(=O)[C@H](CCCCN)NC(=O)CCSCc3cccc(c3)CSCCNC(=O)[C@]3(C)CCCN3C2=O)cc1` [Compound 025] (cyclo(K[dA][Trp(5-F)][Trp(5-F)][αMeP]TY(Me)[αMeP][X4])), the IC50 was in the range of 100 to 1000 nM.

Turning to `CCCCCCCCCCCCCCCC(=O)N[C@@H](CCC(=O)N[C@@H](CCC(=O)NCC[C@H](NC(=O)[C@@H]1CSCc2cccc(c2)CSCCC(=O)N[C@@H](CCCCN)C(=O)NCC(=O)N[C@@H](Cc2c[nH]c3ccc(F)cc23)C(=O)N[C@@H](Cc2c[nH]c3ccc(F)cc23)C(=O)N[C@@H](CC(=O)O)C(=O)N[C@@H](Cc2c[nH]cn2)C(=O)N[C@@H](Cc2ccc(O)cc2)C(=O)N2CCC[C@@]2(C)C(=O)N1)C(N)=O)C(=O)O)C(=O)O` [Compound 284] ([Mpa]KG[Trp(5-F)][Trp(5-F)]DHY[αMeP]C[Dab]([γGlu-γGlu-Palmitoyl])-NH2; linker 1-10 via mXylylene), the IC50 was 21000 to 50000 nM.

For `C[C@@]12CCCN1C(=O)[C@H](Cc1ccc(O)cc1)NC(=O)[C@H](Cc1cnc[nH]1)NC(=O)[C@H](CC(=O)O)NC(=O)[C@H](Cc1c[nH]c3ccc(F)cc13)NC(=O)[C@H](Cc1c[nH]c3ccc(F)cc13)NC(=O)CNC(=O)[C@H](CCCCN)NC(=O)CCSCc1cc(F)cc(c1)CSC[C@@H](C(N)=O)NC2=O` [Compound 287] ([Mpa]KG[Trp(5-F)][Trp(5-F)]DHY[αMeP]C-NH2; linker 1-10 via mXylylene(5-F)), the IC50 was 21000 to 50000 nM.

Take `C[C@H]1NC(=O)[C@H](CCCCN)NC(=O)CCSCc2cc(F)cc(c2)CSCCNC(=O)[C@]2(C)CCCN2C(=O)[C@H](Cc2ccc(O)cc2)NC(=O)[C@H](Cc2cnc[nH]2)NC(=O)[C@H](CC(=O)O)NC(=O)[C@H](Cc2c[nH]c3ccc(F)cc23)NC(=O)[C@H](Cc2c[nH]c3ccc(F)cc23)NC1=O` [Compound 289] (cyclo(DHY[αMeP][X3]K[dA][Trp(5-F)][Trp(5-F)])): the IC50 lay within 21000 to 50000 nM.

In the case of `NCCCC[C@@H]1NC(=O)CCSCc2cccc(c2)CSC[C@@H](C(N)=O)NC(=O)[C@@H]2C[C@@H](c3ccccc3)CN2C(=O)[C@H](Cc2ccc(O)cc2)NC(=O)[C@H](Cc2c[nH]cn2)NC(=O)[C@H](CC(=O)O)NC(=O)[C@H](Cc2c[nH]c3ccc(F)cc23)NC(=O)[C@H](Cc2c[nH]c3ccc(F)cc23)NC(=O)CNC1=O` [Compound 293] ([Mpa]KG[Trp(5-F)][Trp(5-F)]DHY[Pro(trans-4-Ph)]C-NH2; linker 1-10 via mXylylene), the IC50 lay within 0.1 to 100 nM.

As to `NCCCC[C@@H]1NC(=O)CCSCc2cccc(c2)CSC[C@@H](C(N)=O)NC(=O)[C@@H]2C[C@@H](Cc3ccccc3)CN2C(=O)[C@H](Cc2ccc(O)cc2)NC(=O)[C@H](Cc2c[nH]cn2)NC(=O)[C@H](CC(=O)O)NC(=O)[C@H](Cc2c[nH]c3ccc(F)cc23)NC(=O)[C@H](Cc2c[nH]c3ccc(F)cc23)NC(=O)CNC1=O` [Compound 294] ([Mpa]KG[Trp(5-F)][Trp(5-F)]DHY[Pro(4R-Bn)]C-NH2; linker 1-10 via mXylylene), the IC50 was 100 to 1000 nM.

Consider `Cc1ccc(C[C@@H]2NC(=O)[C@H](Cc3c[nH]cn3)NC(=O)[C@H](CC(=O)O)NC(=O)[C@H](Cc3c[nH]c4ccc(F)cc34)NC(=O)[C@H](Cc3c[nH]c4ccc(F)cc34)NC(=O)[C@@H](C)NC(=O)[C@H](CCCCN)NC(=O)CCSCc3cccc(c3)CSCCNC(=O)[C@]3(C)CCCN3C2=O)cc1` [Compound 299] (cyclo(DH[Phe(4-Me)][αMeP][X4]K[dA][Trp(5-F)][Trp(5-F)])), for which the IC50 lay within 100 to 1000 nM.

Take `C[C@H]1NC(=O)[C@H](CCCCN)NC(=O)CCSCc2cccc(c2)CSCCNC(=O)[C@]2(C)CCCN2C(=O)[C@H](Cc2ccc(C#N)cc2)NC(=O)[C@H](Cc2c[nH]cn2)NC(=O)[C@H](CC(=O)O)NC(=O)[C@H](Cc2c[nH]c3ccc(F)cc23)NC(=O)[C@H](Cc2c[nH]c3ccc(F)cc23)NC1=O` [Compound 300] (cyclo(DH[Phe(4-CN)][αMeP][X4]K[dA][Trp(5-F)][Trp(5-F)])): the IC50 was 100 to 1000 nM.

The next assay deals with PCSK9 (Homo sapiens (Human), UniProt Q8NBP7). Nature of the assay: PCSK9 Alexa FRET Standard assay (displacement of AlexaFluor647 tagged cyclic peptide Reagent A). Type of assay: binding. As to conditions: PCSK9 Alexa FRET Standard assay, 0.5 nM PCSK9, 20 nM AF cyclic peptide Reagent A; read-out: IC50. Summed up:
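TR-FRET displacement: 0.5 nM biotinylated PCSK9 with 1.25 nM Strep-Eu and 20 nM AlexaFluor-tagged cyclic peptide (final) in 50 mM HEPES pH 7.4, 0.15 M NaCl, 5 mM CaCl2, 0.01% BSA, 0.01% P20, ≥2 h at room temperature. IC50 from sigmoidal fit, converted to Ki via peptide KD; falling Eu counts flagged false positives.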
Turning to `C[C@H]1NC(=O)[C@H](CCCCN)NC(=O)CCSCc2cccc(c2)CSC[C@@H](C(N)=O)NC(=O)[C@]2(C)CCCN2C(=O)[C@H](Cc2ccc(O)cc2)NC(=O)C(C)(C)NC(=O)[C@@H]2CCCN2C(=O)[C@H](Cc2c[nH]c3ccc(F)cc23)NC(=O)[C@H](Cc2c[nH]c3ccc(F)cc23)NC1=O` [Compound 005] ([Mpa]K[dA][Trp(5-F)][Trp(5-F)]P[Aib]Y[αMeP]C-NH2; linker 1-10 via mXylylene), the IC50 was in the range of 100 to 1000 nM.

For `COc1ccc(C[C@@H]2NC(=O)[C@H]([C@@H](C)O)NC(=O)[C@]3(C)CCCN3C(=O)[C@H](Cc3c[nH]c4ccc(F)cc34)NC(=O)[C@H](Cc3c[nH]c4ccc(F)cc34)NC(=O)[C@@H](C)NC(=O)[C@H](CCCCN)NC(=O)CCSCc3cccc(c3)CSCCNC(=O)[C@]3(C)CCCN3C2=O)cc1` [Compound 025] (cyclo(K[dA][Trp(5-F)][Trp(5-F)][αMeP]TY(Me)[αMeP][X4])), the IC50 was 100 to 1000 nM.
